# Measurements reported in ChEMBL document CHEMBL1806463, “Synthesis, biological evaluation and docking studies of octane-carboxamide based renin inhibitors with extended segments toward S3' site of renin” (Bioorg Med Chem, 2011).
# Target: T1, Renin (Homo sapiens) (UniProt P00797)
# T1 sequence (whole entry): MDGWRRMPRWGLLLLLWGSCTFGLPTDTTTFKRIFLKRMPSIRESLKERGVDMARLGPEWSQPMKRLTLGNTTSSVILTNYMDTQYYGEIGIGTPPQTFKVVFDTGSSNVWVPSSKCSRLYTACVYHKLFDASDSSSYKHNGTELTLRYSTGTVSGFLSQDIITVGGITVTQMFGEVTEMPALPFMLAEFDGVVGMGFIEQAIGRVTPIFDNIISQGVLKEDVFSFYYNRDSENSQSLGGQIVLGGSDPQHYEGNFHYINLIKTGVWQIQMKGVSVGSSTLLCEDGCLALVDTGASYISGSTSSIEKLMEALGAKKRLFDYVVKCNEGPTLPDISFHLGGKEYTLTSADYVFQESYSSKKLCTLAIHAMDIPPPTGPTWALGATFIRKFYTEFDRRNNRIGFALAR
# Experiment: Ratio IC50 for aliskiren to compound for renin
row,Ratio IC50,SMILES
1,10,COCCCOc1cc(C[C@@H](C[C@H](N)[C@@H](O)C[C@H](C(=O)NCC(C)(C)Cn2ccnn2)C(C)C)C(C)C)ccc1OC

# Target: T2, Renin (Homo sapiens, UniProt P00797)
# T2 sequence (P00797 whole entry): T1 sequence (whole entry)
# Experiment: Inhibition of renin measured every 30 secs for 15 mins by fluorimetric analysis
row,SMILES,IC50
1,COCCCOc1cc(C[C@@H](C[C@H](N)[C@@H](O)C[C@H](C(=O)NCC(C)(C)CNC(=O)C(C)(C)C)C(C)C)C(C)C)ccc1OC,4.13 nM
2,COCCCOc1cc(C[C@@H](C[C@H](N)[C@@H](O)C[C@H](C(=O)NCC(C)(C)CNC(=O)C(F)(F)F)C(C)C)C(C)C)ccc1OC,4.85 nM
3,COCCCOc1cc(C[C@@H](C[C@H](N)[C@@H](O)C[C@H](C(=O)NCC(C)(C)CNC(=O)CC(C)C)C(C)C)C(C)C)ccc1OC,1.48 nM
4,COCCCOc1cc(C[C@@H](C[C@H](N)[C@@H](O)C[C@H](C(=O)NCC(C)(C)CNC(=O)c2ccc(OC)cc2)C(C)C)C(C)C)ccc1OC,3.84 nM
5,COCCCOc1cc(C[C@@H](C[C@H](N)[C@@H](O)C[C@H](C(=O)NCC(C)(C)CN)C(C)C)C(C)C)ccc1OC,2.88 nM
6,COCCCOc1cc(C[C@@H](C[C@H](N)[C@@H](O)C[C@H](C(=O)NCC(C)(C)CNC(=O)Cc2ccccc2)C(C)C)C(C)C)ccc1OC,1.64 nM
7,COCCCOc1cc(C[C@@H](C[C@H](N)[C@@H](O)C[C@H](C(=O)NCC(C)(C)CNS(C)(=O)=O)C(C)C)C(C)C)ccc1OC,4.23 nM
8,COCCCOc1cc(C[C@@H](C[C@H](N)[C@@H](O)C[C@H](C(=O)NCC(C)(C)CNS(=O)(=O)c2ccc(C)cc2)C(C)C)C(C)C)ccc1OC,1.15 nM

# The next lines start with the values.
row,IC50,SMILES
1,0.83 nM,CCCCCC(=O)NCC(C)(C)CNC(=O)[C@@H](C[C@H](O)[C@@H](N)C[C@H](Cc1ccc(OC)c(OCCCOC)c1)C(C)C)C(C)C
2,0.36 nM,COCCCOc1cc(C[C@@H](C[C@H](N)[C@@H](O)C[C@H](C(=O)NCC(C)(C)CNC(=O)N(C)C)C(C)C)C(C)C)ccc1OC
3,0.2 nM,COCCCOc1cc(C[C@@H](C[C@H](N)[C@@H](O)C[C@H](C(=O)NCC(C)(C)Cn2ccnn2)C(C)C)C(C)C)ccc1OC
4,0.91 nM,CCS(=O)(=O)NCC(C)(C)CNC(=O)[C@@H](C[C@H](O)[C@@H](N)C[C@H](Cc1ccc(OC)c(OCCCOC)c1)C(C)C)C(C)C
5,1.12 nM,CCCC(=O)NCC(C)(C)CNC(=O)[C@@H](C[C@H](O)[C@@H](N)C[C@H](Cc1ccc(OC)c(OCCCOC)c1)C(C)C)C(C)C
6,1.08 nM,CCC(=O)NCC(C)(C)CNC(=O)[C@@H](C[C@H](O)[C@@H](N)C[C@H](Cc1ccc(OC)c(OCCCOC)c1)C(C)C)C(C)C
7,0.81 nM,CCOC(=O)NCC(C)(C)CNC(=O)[C@@H](C[C@H](O)[C@@H](N)C[C@H](Cc1ccc(OC)c(OCCCOC)c1)C(C)C)C(C)C
8,1.02 nM,COCCCOc1cc(C[C@@H](C[C@H](N)[C@@H](O)C[C@H](C(=O)NCC(C)(C)CNC(=O)c2ccccc2)C(C)C)C(C)C)ccc1OC
9,0.79 nM,COCCCOc1cc(C[C@@H](C[C@H](N)[C@@H](O)C[C@H](C(=O)NCC(C)(C)CNS(N)(=O)=O)C(C)C)C(C)C)ccc1OC
